Reference: PubChem BioAssay AID192 (DTP/NCI, 2004)
Toxic doses and inconclusive results are not listed. Rule for the calls: active = survival T/C of 150% or more; inactive = T/C below 125% in these data.

Tested on: BDF1 mice, B16 melanoma ip, median survival T/C
Assay: NCI In Vivo Anticancer Drug Screen. Data for tumor model B16 Melanoma (intraperitoneal) in B6D2F1 (BDF1) mice
Settings: endpoint: median survival time, schedule: Q01DX009 (ip), higher = longer survival
Outline: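 Compounds were tested in mice carrying transplantable tumors. Survival or tumor size was recorded, and each value is the treated-group measurement (T) divided by that of the vehicle-treated control group (C).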

[1] = dose: 10.0 mg/kg/injection, vehicle: saline with Tween-80
[2] = dose: 25.0 mg/kg/injection, vehicle: Klucel (hydroxypropylcellulose) (HPC)
[3] = dose: 50.0 mg/kg/injection, vehicle: Klucel (hydroxypropylcellulose) (HPC)
[4] = dose: 100.0 mg/kg/injection, vehicle: Klucel (hydroxypropylcellulose) (HPC)
[5] = dose: 200.0 mg/kg/injection, vehicle: Klucel (hydroxypropylcellulose) (HPC)

Measured: T/C

COC(=O)C(C#N)=C(C)C
inactive: [1] 100 % of control | dose: 20.0 mg/kg/injection, vehicle: saline with Tween-80 98 % of control | dose: 40.0 mg/kg/injection, vehicle: saline with Tween-80 94 % of control

O=C1C(Cl)=C(Cl)C(=O)c2ccccc21
inactive: dose: 5.0 mg/kg/injection, vehicle: saline with Tween-80 87 % of control | [1] 87 % of control

COc1ccc(N2CSC(=S)N(c3ccc(OC)cc3)C2)cc1
inactive: dose: 8.0 mg/kg/injection, vehicle: saline with Tween-80 97 % of control | dose: 12.0 mg/kg/injection, vehicle: saline with Tween-80 90 % of control | dose: 18.0 mg/kg/injection, vehicle: saline with Tween-80 90 % of control | [2] 102 % of control | dose: 25.0 mg/kg/injection, vehicle: saline with Tween-80 112 % of control | [3] 94 % of control | dose: 50.0 mg/kg/injection, vehicle: saline with Tween-80 115 % of control | [4] 114 % of control

O=C(Nc1ccccc1F)c1cccc(C(=O)Nc2ccccc2F)c1
inactive: [3] 101 % of control | [4] 108 % of control | [5] 96 % of control

O=C(Nc1cccc(C(F)(F)F)c1)c1cc(Br)cc(Br)c1O
inactive: dose: 12.5 mg/kg/injection, vehicle: Klucel (hydroxypropylcellulose) (HPC) 108 % of control | [2] 106 % of control | [3] 110 % of control

CCC(C(N)=O)C1=CCCCC1 (stereo unspecified)
inactive: [4] 105 % of control | [5] 101 % of control
